In DBAASP:
In brackets after ≈: the same amount, converted by molar mass. Several values for one entry are separate records, joined by “and”; a condition that tells them apart may be missing. Identical values can stand only once.

Tests used:
Assay in all cases: ≥ marks a high value that may be exact or a test limit, other limits are often not marked, values filed in µg/mL are converted to µM
Bacillus subtilis = tested on: Bacillus subtilis
[1] = tested on: Candida albicans ATCC 90028
Enterobacter cloacae = tested on: Enterobacter cloacae
[2] = tested on: Escherichia coli ATCC 25922
Escherichia coli = tested on: Escherichia coli
[3] = tested on: Pseudomonas aeruginosa ATCC 27853
Pseudomonas aeruginosa = tested on: Pseudomonas aeruginosa
[4] = tested on: Salmonella enterica subsp. enterica serovar Typhi
[5] = tested on: Staphylococcus aureus ATCC 25923
Staphylococcus aureus = tested on: Staphylococcus aureus
Bacillus subtilis 168 = tested on: Bacillus subtilis 168
[6] = tested on: Candida albicans F7-39/IDE99
Escherichia coli B = tested on: Escherichia coli B
[7] = tested on: Micrococcus luteus CCM 144
Aeromonas hydrophila = tested on: Aeromonas hydrophila
Escherichia coli MG1655 = tested on: Escherichia coli MG1655
Vibrio harveyi = tested on: Vibrio harveyi
[8] = tested on: Acinetobacter baumannii ATCC 19606
[9] = tested on: Cryptococcus neoformans ATCC 208821
[10] = tested on: Klebsiella pneumoniae ATCC 700603
[11] = tested on: Staphylococcus aureus ATCC 43300
[12] = tested on: Staphylococcus aureus ATCC BAA-1556
Streptococcus mutans = tested on: Streptococcus mutans
[13] = tested on: Bacillus subtilis ATCC 6633
[14] = tested on: Escherichia coli ATCC 8739
[15] = tested on: Staphylococcus aureus ATCC 6538

CC(C)C[C@H](NC(=O)[C@H](CCCCN)NC(=O)[C@H](CCCN=C(N)N)NC(=O)[C@H](Cc1ccccc1)NC(=O)[C@H](Cc1ccccc1)NC(=O)[C@H](CCCCN)NC(=O)[C@H](CCCCN)NC(=O)[C@H](Cc1ccccc1)NC(=O)[C@H](CCCN=C(N)N)NC(=O)[C@H](CCCCN)NC(=O)[C@@H](NC(=O)[C@H](CC(C)C)NC(=O)[C@@H](N)CCCCN)C(C)C)C(=O)N[C@@H](CCCCN)C(=O)N[C@@H](CCCCN)C(=O)N[C@@H](CO)C(N)=O [KLVKRFKKFFRKLKKS]
MIC (Bacillus subtilis): ≥ 61.5 µM
MIC [1]: 30.7 µM (≈ 64 µg/mL)
MIC (Enterobacter cloacae): ≥ 123 µM
MIC [2]: 30.7 µM (≈ 64 µg/mL)
MIC (Escherichia coli): 15.4 µM (≈ 32 µg/mL)
MIC [3]: 61.5 µM (≈ 128 µg/mL)
MIC (Pseudomonas aeruginosa): 7.69 µM (≈ 16 µg/mL)
MIC [4]: 3.84 µM (≈ 8 µg/mL)
MIC [5]: 0.961 µM (≈ 2 µg/mL)
MIC (Staphylococcus aureus): 61.5 µM (≈ 128 µg/mL)

CC(C)C[C@H](NC(=O)CNC(=O)[C@H](C)NC(=O)CNC(=O)[C@H](Cc1c[nH]c2ccccc12)NC(=O)[C@H](CC(N)=O)NC(=O)[C@@H](N)CC(C)C)C(=O)N[C@@H](CCCCN)C(=O)N[C@@H](Cc1cnc[nH]1)C(=O)NCC(=O)NCC(=O)N[C@@H](CCCCN)C(N)=O [LNWGAGLKHGGK]
MIC (Bacillus subtilis 168): ≥ 100 µM
MIC [6]: ≥ 100 µM
MIC (Escherichia coli B): ≥ 100 µM
MIC [7]: ≥ 100 µM
MIC (Pseudomonas aeruginosa): > 100 µM
MIC (Staphylococcus aureus): > 100 µM

CC[C@H](C)[C@H](NC(=O)[C@H](C)NC(=O)[C@H](CCCN=C(N)N)NC(=O)[C@@H](NC(=O)CNC(=O)[C@H](Cc1cnc[nH]1)NC(=O)[C@H](CO)NC(=O)[C@@H](NC(=O)[C@H](Cc1c[nH]c2ccccc12)NC(=O)CNC(=O)[C@@H](NC(=O)[C@@H](NC(=O)[C@H](Cc1cnc[nH]1)NC(=O)[C@H](Cc1cnc[nH]1)NC(=O)[C@@H](NC(=O)[C@@H](N)Cc1ccccc1)[C@@H](C)CC)[C@@H](C)CC)[C@@H](C)CC)[C@@H](C)CC)C(C)C)C(=O)N[C@@H](C)C(=O)N[C@@H](CCCN=C(N)N)C(=O)N[C@@H](C)C(=O)N[C@H](C(=O)N[C@@H](Cc1cnc[nH]1)C(N)=O)[C@@H](C)CC [FIHHIIGWISHGVRAIARAIH]
MIC (Aeromonas hydrophila): ≥ 128 µM
MIC (Escherichia coli MG1655): 8 µM and 16 µM
MIC (Vibrio harveyi): 16 µM (≈ 38.5 µg/mL)

CC[C@H](C)[C@H](NC(=O)[C@H](C)NC(=O)CNC(=O)[C@H](Cc1c[nH]c2ccccc12)NC(=O)[C@H](CC(N)=O)NC(=O)[C@@H](N)CC(C)C)C(=O)N[C@@H](CC(C)C)C(=O)N[C@@H](CCCCN)C(=O)N[C@@H](Cc1cnc[nH]1)C(=O)N[C@H](C(=O)N[C@@H](CCCCN)C(=O)N[C@@H](CCCCN)C(N)=O)[C@@H](C)CC [LNWGAILKHIKK]
MIC (Bacillus subtilis 168): 13.3 µM (≈ 18.9 µg/mL)
MIC [6]: 11.3 µM (≈ 16 µg/mL)
MIC (Escherichia coli B): ≥ 70 µM
MIC [7]: 10.8 µM (≈ 15.3 µg/mL)
MIC (Pseudomonas aeruginosa): 93.3 µM (≈ 132 µg/mL)
MIC (Staphylococcus aureus): 100 µM (≈ 142 µg/mL)

CC[C@H](C)[C@H](NC(=O)[C@H](C)NC(=O)[C@H](CCCN=C(N)N)NC(=O)[C@H](Cc1cnc[nH]1)NC(=O)[C@@H](NC(=O)[C@H](C)NC(=O)[C@H](CCCN=C(N)N)NC(=O)[C@@H](NC(=O)CNC(=O)[C@H](Cc1cnc[nH]1)NC(=O)[C@H](CO)NC(=O)[C@@H](NC(=O)[C@H](Cc1c[nH]c2ccccc12)NC(=O)CNC(=O)[C@@H](NC(=O)[C@@H](NC(=O)[C@H](Cc1cnc[nH]1)NC(=O)[C@H](Cc1cnc[nH]1)NC(=O)[C@@H](NC(=O)[C@@H](N)Cc1ccccc1)[C@@H](C)CC)[C@@H](C)CC)[C@@H](C)CC)[C@@H](C)CC)C(C)C)[C@@H](C)CC)C(=O)N[C@@H](C)C(N)=O [FIHHIIGWISHGVRAIHRAIA]
MIC (Aeromonas hydrophila): 16 µM (≈ 38.5 µg/mL)
MIC (Vibrio harveyi): 16 µM (≈ 38.5 µg/mL)

CC(C)C[C@H](NC(=O)CNC(=O)[C@H](CO)NC(=O)CNC(=O)[C@H](CCCN=C(N)N)NC(=O)[C@H](CCCN=C(N)N)NC(=O)CN)C(=O)NCC(=O)N[C@@H](CCCN=C(N)N)C(=O)N[C@@H](CO)C(=O)N[C@@H](CO)C(=O)N[C@@H](CO)C(=O)N[C@@H](CCCN=C(N)N)C(=O)NCC(=O)N[C@@H](CCC(N)=O)C(=O)N[C@@H](CCCN=C(N)N)C(=O)NCC(=O)N[C@@H](CO)C(=O)NCC(=O)N[C@@H](CO)C(=O)NCC(=O)N[C@@H](CCCN=C(N)N)C(=O)O [GRRGSGLGRSSSRGQRGSGSGR]
MIC [8]: > 14.7 µM
MIC [1]: 14.7 µM (≈ 32 µg/mL)
MIC [9]: 14.7 µM (≈ 32 µg/mL)
MIC [2]: > 14.7 µM
MIC [10]: > 14.7 µM
MIC [3]: > 14.7 µM
MIC [11]: > 14.7 µM

CC(C)C[C@H](NC(=O)[C@H](Cc1c[nH]c2ccccc12)NC(=O)[C@H](Cc1c[nH]c2ccccc12)NC(=O)[C@H](CC(C)C)NC(=O)[C@H](Cc1c[nH]c2ccccc12)NC(=O)[C@H](Cc1c[nH]c2ccccc12)NC(=O)[C@H](CC(C)C)NC(=O)[C@H](CCCN=C(N)N)NC(=O)[C@@H](N)Cc1c[nH]c2ccccc12)C(N)=O [WRLWWLWWL]
MIC [12]: 6.25 µM (≈ 9.02 µg/mL)

NCCCC[C@H](NC(=O)[C@H](Cc1c[nH]c2ccccc12)NC(=O)[C@H](Cc1c[nH]c2ccccc12)NC(=O)[C@H](Cc1c[nH]c2ccccc12)NC(=O)[C@H](CCCN=C(N)N)NC(=O)[C@H](CCCN=C(N)N)NC(=O)[C@@H](N)CCCN=C(N)N)C(=O)O [RRRWWWK]
MIC (Streptococcus mutans): ≥ 53.3 µM

CC[C@H](C)[C@H](NC(=O)CN)C(=O)N[C@@H](Cc1ccccc1)C(=O)N[C@@H](CO)C(=O)N[C@H](C(=O)N[C@H](C(=O)N[C@@H](Cc1ccccc1)C(=O)N[C@@H](CCCCN)C(=O)N[C@@H](C)C(=O)NCC(=O)N[C@@H](CCCCN)C(=O)NCC(=O)N[C@H](C(=O)N[C@H](C(=O)N[C@H]1CSSC[C@@H](C(=O)O)NC(=O)[C@H](CC(C)C)NC(=O)CNC(=O)[C@H]([C@@H](C)O)NC(=O)[C@H](CC(C)C)NC(=O)CNC1=O)C(C)C)[C@@H](C)CC)C(C)C)[C@@H](C)O [GIFSTVFKAGKGIVCGLTGLC]
MIC [13]: 12.5 µM (≈ 25.9 µg/mL)
MIC [1]: ≥ 50 µM
MIC [14]: 25 µM (≈ 51.7 µg/mL)
MIC [11]: 12.5 µM (≈ 25.9 µg/mL)
MIC [15]: 3.1 µM (≈ 6.42 µg/mL)

CC[C@H](C)[C@H](NC(=O)[C@H](CCC(N)=O)NC(=O)[C@H](CCCCN)NC(=O)[C@@H](NC(=O)[C@H](CCC(=O)O)NC(=O)[C@H](CCC(N)=O)NC(=O)[C@H](CC(C)C)NC(=O)[C@@H](NC(=O)[C@@H](N)CCCN=C(N)N)C(C)C)[C@@H](C)CC)C(=O)N[C@@H](CC(C)C)C(=O)N[C@@H](CCCCN)C(=O)O [RVLQEIKQILK]
MIC (Streptococcus mutans): ≥ 183 µM

CC[C@H](C)[C@H](NC(=O)[C@H](C)NC(=O)[C@H](CCCN=C(N)N)NC(=O)[C@H](Cc1cnc[nH]1)NC(=O)[C@@H](NC(=O)[C@H](C)NC(=O)[C@H](CCCN=C(N)N)NC(=O)[C@@H](NC(=O)CNC(=O)[C@H](C)NC(=O)[C@H](CO)NC(=O)[C@@H](NC(=O)[C@H](Cc1c[nH]c2ccccc12)NC(=O)CNC(=O)[C@@H](NC(=O)[C@@H](NC(=O)[C@H](Cc1cnc[nH]1)NC(=O)[C@H](Cc1cnc[nH]1)NC(=O)[C@@H](NC(=O)[C@@H](N)Cc1ccccc1)[C@@H](C)CC)[C@@H](C)CC)[C@@H](C)CC)[C@@H](C)CC)C(C)C)[C@@H](C)CC)C(=O)N[C@@H](Cc1cnc[nH]1)C(N)=O [FIHHIIGWISAGVRAIHRAIH]
MIC (Aeromonas hydrophila): ≥ 128 µM
MIC (Escherichia coli MG1655): 8 µM and 16 µM
MIC (Vibrio harveyi): ≥ 64 µM

CC[C@H](C)[C@H](NC(=O)[C@H](Cc1c[nH]c2ccccc12)NC(=O)[C@H](CCCN=C(N)N)NC(=O)[C@H](CCCN=C(N)N)NC(=O)[C@@H](N)Cc1c[nH]c2ccccc12)C(=O)N[C@@H](CCCN=C(N)N)C(=O)N[C@@H](Cc1c[nH]c2ccccc12)C(=O)N[C@@H](CC(C)C)C(N)=O [WRRWIRWL]
MIC [12]: 25 µM (≈ 31.8 µg/mL)

C[C@H](NC(=O)[C@@H](NC(=O)[C@H](CCCN=C(N)N)NC(=O)[C@H](CO)NC(=O)CNC(=O)[C@H](CCCN=C(N)N)NC(=O)[C@H](CCC(N)=O)NC(=O)[C@@H](NC(=O)[C@H](CO)NC(=O)[C@H](CCC(N)=O)NC(=O)CNC(=O)[C@H](Cc1cnc[nH]1)NC(=O)CNC(=O)[C@H](CO)NC(=O)[C@H](Cc1cnc[nH]1)NC(=O)[C@H](C)NC(=O)[C@@H](N)Cc1cnc[nH]1)[C@@H](C)O)[C@@H](C)O)C(=O)NCC(=O)N[C@@H](CCCN=C(N)N)C(=O)O [HAHSGHGQSTQRGSRTAGR]
MIC [8]: > 16.1 µM
MIC [1]: 16.1 µM (≈ 32 µg/mL)
MIC [9]: 16.1 µM (≈ 32 µg/mL)
MIC [2]: > 16.1 µM
MIC [10]: > 16.1 µM
MIC [3]: > 16.1 µM
MIC [11]: > 16.1 µM
